In patent US7625913B2, “Pyrazole compounds useful as protein kinase inhibitors” (Vertex Pharmaceuticals Incorporated, priority 2000, dated 2009):
pKi: −log10 of the molar value.

Key:
GSK-3β (AA 1-420) = biological target: T1, GSK-3β (AA 1-420) (Homo sapiens, UniProt P49841); test: Ki determination for the inhibition of GSK-3 (coupled enzyme system); type: biochemical; conditions: 20 μM ATP, 300 μM peptide, 20 nM GSK-3β, 30° C.
T1 construct: GSK-3β (AA 1-420)
Procedure: Reactions were carried out in a solution containing 100 mM HEPES (pH 7.5), 10 mM MgCl2, 25 mM NaCl, 300 μM NADH, 1 mM DTT and 1.5% DMSO. Final substrate concentrations in the assay were 20 μM ATP (Sigma Chemicals, St Louis, Mo.) and 300 μM peptide (HSSPHQS(PO3H2)EDEEE, American Peptide, Sunnyvale, Calif.). Reactions were carried out at 30° C. and 20 nM GSK-3β. Final concentrations of the components of the coupled enzyme system were 2.5 mM phosphoenolpyruvate, 300 μM NADH, 30 μg/ml pyruvate kinase and 10 μg/ml lactate dehydrogenase.
An assay stock buffer solution was prepared containing all of the reagents listed above with the exception of ATP and the test compound of interest. […] The reaction was initiated by the addition of 20 μl of ATP (final concentration 20 μM). Rates of reaction were obtained using a Molecular Devices Spectramax plate reader (Sunnyvale, Calif.) over 10 min at 30° C. The Ki values were determined from the rate data as a function of inhibitor concentration.

Aurora-2 = biological target: T2, Aurora-2 (Homo sapiens, UniProt O14965); test: Ki determination for the inhibition of Aurora-2 (coupled enzyme assay); type: biochemical; conditions: 70 nM Aurora-2, peptide LRRASLG, 30° C.
T2 sequence (O14965 1-403): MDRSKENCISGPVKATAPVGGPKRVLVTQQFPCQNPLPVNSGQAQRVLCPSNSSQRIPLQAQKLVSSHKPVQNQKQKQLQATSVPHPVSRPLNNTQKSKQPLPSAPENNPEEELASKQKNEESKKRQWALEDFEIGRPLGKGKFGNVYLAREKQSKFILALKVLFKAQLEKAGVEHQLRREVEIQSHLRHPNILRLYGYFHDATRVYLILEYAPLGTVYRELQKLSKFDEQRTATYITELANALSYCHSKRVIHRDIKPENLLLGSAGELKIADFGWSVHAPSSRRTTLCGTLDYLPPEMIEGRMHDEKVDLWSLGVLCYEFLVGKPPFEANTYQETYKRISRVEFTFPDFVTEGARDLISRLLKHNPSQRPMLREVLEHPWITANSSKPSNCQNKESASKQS
Procedure: To an assay stock buffer solution containing 0.1M HEPES 7.5, 10 mM MgCl2, 1 mM DTT, 25 mM NaCl, 2.5 mM phosphoenolpyruvate, […], 30 mg/ml pyruvate kinase, 10 mg/ml lactate dehydrogenase, 40 mM ATP, and 800 μM peptide (LRRASLG, American Peptide, Sunnyvale, Calif.) was added a DMSO solution of a compound of the present invention to a final concentration of 30 μM. The resulting mixture was incubated at 30° C. for 10 min. The reaction was initiated by the addition of 10 μL of Aurora-2 stock solution to give a final concentration of 70 nM in the assay. […] The Ki values were determined from the rate data as a function of inhibitor concentration.

CDK-2/Cyclin A = CDK-2/Cyclin A (Homo sapiens, UniProt P24941); test: CDK-2 inhibition assay (coupled enzyme assay); type: biochemical; conditions: 25 nM CDK-2/Cyclin A, 30° C.
Procedure: Compounds were screened in the following manner for their ability to inhibit CDK-2 using a standard coupled enzyme assay (Fox et al (1998) Protein Sci 7, 2249).
To an assay stock buffer solution containing 0.1M HEPES 7.5, 10 mM MgCl2, 1 mM DTT, 25 mM NaCl, 2.5 mM phosphoenolpyruvate, […], 30 mg/ml pyruvate kinase, 10 mg/ml lactate dehydrogenase, 100 mM ATP, and 100 μM peptide ([…], American Peptide, Sunnyvale, Calif.) was added a DMSO solution of a compound of the present invention to a final concentration of 30 μM. The resulting mixture was incubated at 30° C. for 10 min.
The reaction was initiated by the addition of 10 μL of CDK-2/Cyclin A stock solution to give a final concentration of 25 nM in the assay. The rates of reaction were obtained by monitoring absorbance at 340 nm over a 5-minute read time at 30° C. using a BioRad Ultramark plate reader (Hercules, Calif.). The Ki values were determined from the rate data as a function of inhibitor concentration.

T1 sequence (P49841 whole entry, the tested form may be a part): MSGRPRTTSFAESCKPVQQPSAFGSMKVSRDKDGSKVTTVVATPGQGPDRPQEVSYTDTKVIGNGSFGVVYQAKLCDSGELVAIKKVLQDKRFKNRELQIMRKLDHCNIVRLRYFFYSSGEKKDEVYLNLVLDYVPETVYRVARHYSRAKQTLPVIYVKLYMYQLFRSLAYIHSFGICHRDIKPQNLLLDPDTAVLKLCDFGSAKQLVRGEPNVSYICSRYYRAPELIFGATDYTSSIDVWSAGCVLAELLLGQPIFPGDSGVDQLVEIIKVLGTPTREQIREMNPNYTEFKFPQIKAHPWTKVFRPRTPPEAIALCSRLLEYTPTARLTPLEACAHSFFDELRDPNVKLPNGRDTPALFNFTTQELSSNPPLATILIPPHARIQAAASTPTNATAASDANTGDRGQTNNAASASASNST

COc1ccc2c(Nc3cc(C)n[nH]3)nc(Sc3ccc(NC(C)=O)cc3)nc2c1 [IIa-40, [2-(4-Acetamidophenylsulfanyl)-7-methoxy-quinazolin-4-yl]-(5-methyl-2H-pyrazol-3-yl)-amine]
pKi (GSK-3β (AA 1-420)): 5.15 to 6.00 | melting point: 291 to 293 °C | pKi (Aurora-2): > 7.00 | pKi (CDK-2/Cyclin A): 4.70 to 6.00
